pEC50, pIC50: −log10 of the molar value. Active and inactive are the calls of the source. The rule behind the calls is not given here.
How the values were obtained:
SARS-CoV-2 [1] = assay: Antiviral activity against luciferase independent SARS CoV-2 spike-pseudotyped lentivirus infected in human A549-hACE2-TMPRSS2 cells assessed as inhibition of viral entry at 31.6 to 63.3 uM compound spin-down for 1 hr followed by viral infection and measured after 24 hrs by luciferase reporter assay; assay type: functional, organism-based; settings: Severe acute respiratory syndrome coronavirus 2, dose 31.6-63.3 µM, time 25.0 hrs
Sus scrofa [2] = species on record: Sus scrofa; assay: (§1) Inhibition of porcine heart MDH using oxaloacetic acid as substrate assessed as enzyme recovery by measuring residual activity at approximately IC90 preincubated for 5 mins in presence of triton X-0.01% followed by substrate and NADPH addition and measured for 80 sec by absorbance based analysis relative to control; settings: time 380.0 sec
SARS-CoV-2 [3] = assay: Antiviral activity against SARS-CoV-2; assay type: functional, organism-based; settings: Severe acute respiratory syndrome coronavirus 2
Sus scrofa [4] = species on record: Sus scrofa; assay: as §1, with “10 mg/ml BSA” for “triton X-0.01%”, “enzyme” for “substrate and NADPH”, “after 5 mins” for “for 80 sec”; settings: time 10.0 min
SARS-CoV-2 [5] = assay: Antiviral activity against SARS CoV-2 spike-pseudotyped lentivirus infected in human A549-hACE2-TMPRSS2 cells assessed as inhibition of viral entry incubated for 24 hrs in absence of BSA by luciferase reporter assay; assay type: functional, organism-based; settings: Severe acute respiratory syndrome coronavirus 2, A549-hACE2-TMPRSS2, 24 h
SARS-CoV-2 [6] = assay: Antiviral activity against SARS CoV-2 spike-pseudotyped lentivirus infected in human A549-hACE2-TMPRSS2 cells assessed as inhibition of viral entry preincubated with 10 mg/ml BSA for 5 mins followed by viral infection and further incubated for 24 hrs by luciferase reporter assay; assay type: functional, organism-based; settings: Severe acute respiratory syndrome coronavirus 2, A549-hACE2-TMPRSS2
[7] = Aggregation property of compound in 50 mM KPi buffer at pH 7 assessed as critical aggregation concentration by DLS assay; assay type: physicochemical
[8] = Aggregation property of compound in DMEM media assessed as critical aggregation concentration by DLS assay; assay type: physicochemical
[9] = Inhibition of porcine heart MDH using oxaloacetic acid as substrate preincubated for 5 mins followed by substrate and […] addition and measured for 80 sec by absorbance based analysis; set-up: species or system Sus scrofa
[10] = Absorption property of compound in DMEM media at 100 to 200 uM at 500 to 700 nm by luciferase assay; assay type: physicochemical; settings: dose 100-200 µM
SARS-CoV-2 [11] = assay: Antiviral activity against luciferase independent SARS CoV-2 spike-pseudotyped lentivirus infected in human A549-hACE2-TMPRSS2 cells assessed as inhibition of viral entry by measuring reduction in luciferase activity incubated for 24 hrs by luciferase reporter assay; assay type: functional, organism-based; settings: Severe acute respiratory syndrome coronavirus 2
[12] = Cytotoxicity against human A549-hACE2-TMPRSS2 assessed as reduction in cell viability incubated for 24 hrs by MTT assay; assay type: toxicity, cell-based; settings: a549-hace2-tmprss2, 24 h
Sus scrofa [13] = species on record: Sus scrofa; assay: Inhibition of porcine heart MDH using oxaloacetic acid as substrate at approximately IC90 spin-down for 1 hr followed by enzyme addition and measured after 5 mins by absorbance based analysis; settings: time 65.0 min
SARS-CoV-2 [14] = assay: Antiviral activity against SARS-CoV-2 pseudovirus infected in 293T/ACE2 cells assessed as reduction in virus entry preincubated with compound followed by infection in cells and measured after 48 hrs by luciferase based assay; assay type: functional, organism-based; settings: Severe acute respiratory syndrome coronavirus 2, 293T/ACE2
SARS-CoV-2 [15] = assay: Antiviral activity against SARS-CoV-2 infected in Vero E6 cells assessed as reduction in viral infectivity; assay type: functional, organism-based; settings: Severe acute respiratory syndrome coronavirus 2, Vero C1008
[16] = target: Spike glycoprotein (Severe acute respiratory syndrome coronavirus 2) (UniProt P0DTC2); assay: Binding affinity to Alex-fluor-647 labeled SARS-CoV-2 spike protein assessed as protein-colloid complex formation by measuring fluorescence puncta formation compound preincubated with 10 mg/ml BSA for 5 mins followed by protein addition and further incubated for 5 mins by confocal microscopic analysis
[17] = target: Spike glycoprotein (Severe acute respiratory syndrome coronavirus 2) (UniProt P0DTC2); assay: Binding affinity to Alex-fluor-647 labeled SARS-CoV-2 spike protein assessed as protein-colloid complex formation by measuring fluorescence puncta formation incubated for 5 mins by confocal microscopic analysis
[18] = target: Spike glycoprotein (Severe acute respiratory syndrome coronavirus 2) (UniProt P0DTC2); assay: Binding affinity to Alex-fluor-647 labeled SARS-CoV-2 spike protein assessed as protein-colloid complex formation by measuring fluorescence puncta formation incubated for 5 mins in presence of 0.025% Tween-80 by confocal microscopic analysis
SARS-CoV-2 [19] = assay: Antiviral activity against luciferase independent SARS CoV-2 spike-pseudotyped lentivirus infected in human A549-hACE2-TMPRSS2 cells assessed as inhibition of viral entry measured after 24 hrs before centrifugation by luciferase reporter assay; assay type: functional, organism-based; settings: Severe acute respiratory syndrome coronavirus 2, A549-hACE2-TMPRSS2
SARS-CoV-2 [20] = assay: Antiviral activity against luciferase independent SARS CoV-2 spike-pseudotyped lentivirus infected in human A549-hACE2-TMPRSS2 cells assessed as inhibition of viral entry compound spin-down for 1 hr followed by viral infection and measured after 24 hrs by luciferase reporter assay; assay type: functional, organism-based; settings: Severe acute respiratory syndrome coronavirus 2, A549-hACE2-TMPRSS2
[21] = target: Spike glycoprotein (Severe acute respiratory syndrome coronavirus 2) (UniProt P0DTC2); assay: Binding affinity to Alex-fluor-647 labeled SARS-CoV-2 spike protein assessed as protein-colloid complex formation by measuring fluorescence puncta formation at 200 uM incubated for 5 mins by confocal microscopic analysis
[22] = Inhibition of Beta-lactamase AmpC (unknown origin) using CENTA as chromogenic substrate preincubated for 5 mins followed by substrate addition and measured for 80 sec by absorbance based analysis; set-up: species or system Bacteria
Bacteria [23] = assay: (§2) Inhibition of Beta-lactamase AmpC (unknown origin) using CENTA as chromogenic substrate assessed as enzyme recovery by measuring residual activity at approximately IC90 preincubated for 5 mins in presence of 10 mg/ml BSA followed by enzyme addition and measured after 5 mins by absorbance based analysis relative to control; settings: time 10.0 min
Bacteria [24] = assay: as §2, with “of triton X-0.01%” for “of 10 mg/ml BSA”, “by substrate” for “by enzyme”, “measured for 80 sec” for “measured after 5 mins”; settings: time 380.0 sec

Compound | Activity (Sus scrofa [2]) [%] | pEC50 (SARS-CoV-2 [3]) | Activity (Sus scrofa [4]) [%] | pEC50 (SARS-CoV-2 [5]) | CAC [7] [µM] | CAC [8] [µM] | pIC50 [9] | Activity [10] | Activity (SARS-CoV-2 [11]) | also measured
O=C(O[C@@H]1Cc2c(O)cc(O)cc2O[C@@H]1c1cc(O)c(O)c(O)c1)c1cc(O)c(O)c(O)c1 [EPIGALOCATECHIN GALLATE] | 63.3 | 5.27 | 53 | 4.45 |  |  |  |  |  | Activity (SARS-CoV-2 [1]): Active
C=C[C@@](C)(/C=C/c1ccc(O)cc1)CCC=C(C)C [BAKUCHIOL] | 111 |  | 77 | 5.27 | 6.2 | 2.5 | 4.92 | Not Active | Active | pEC50 (SARS-CoV-2 [6]): 4.29
O=c1c(O)c(-c2ccc(O)c(O)c2)oc2cc(O)cc(O)c12 [QUERCETIN] | 61 |  | 108 |  | 62 | 100 | 5.48 | Not Active |  | 
CC(C)C(=O)OCC(=O)[C@@]12O[C@H](C3CCCCC3)O[C@@H]1C[C@H]1[C@@H]3CCC4=CC(=O)C=C[C@]4(C)[C@H]3[C@@H](O)C[C@@]12C [CICLESONIDE] | 66.1 | 4.69 | 57 |  | 8.1 | 4.2 | 5.00 | Not Active |  | 
CC(C)=CCc1c(O)ccc(C(=O)/C=C/c2ccc(O)cc2)c1O [ISOBAVACHALCONE] | 109 |  | 108 |  | 6.1 | 63 | 4.44 | Not Active |  | Activity [12]: Toxic
C=C(C)[C@@H]1CCC(C)=C[C@H]1c1c(O)cc(CCCCC)c(C(=O)O)c1O [CANNABIDIOLIC ACID] | 81.3 |  | 61 |  | 61 | 14 | 4.33 | Not Active |  | Activity (SARS-CoV-2 [1]): Active; Activity [12]: Toxic; inhibition (Sus scrofa [13]): Active
C[C@]12CC[C@@H]3c4ccc(OC(=O)c5ccccc5)cc4CC[C@H]3[C@@H]1CC[C@@H]2O [ESTRADIOL BENZOATE] | 89.1 |  | 62 |  | 9.3 | 1.8 | 4.06 | Not Active |  | pEC50 (SARS-CoV-2 [14]): 6.57
COc1cc(/C=C/C(=O)CC(=O)/C=C/c2ccc(O)c(OC)c2)ccc1O [CURCUMIN] | 116 |  | 124 |  | 26 | 12 | 4.85 | Not Active |  | pEC50 (SARS-CoV-2 [15]): 4.79
Cc1cc(O)c2c(c1)C(=O)c1cc(O)cc(O)c1C2=O [EMODIN] |  | 4.60 | 67 | 5.66 | 8.6 | 63.1 | 4.41 | Not Active | Active | Activity [16]: inactive; Activity [17]: Active; Activity [18]: inactive; pEC50 (SARS-CoV-2 [19]): 5.65
CC1(C)Cc2c(-c3ccccc3)c(-c3ccc(Cl)cc3)c(CC(=O)O)n2C1 [LICOFELONE] |  |  |  |  | 54 | 5.5 | 4.64 | Not Active |  | Activity [12]: Toxic
Cc1cc(O)c2c(=O)c3c(O)cc(O)c4c5c(O)cc(O)c6c(=O)c7c(O)cc(C)c8c1c2c(c34)c(c78)c65 [HYPERICIN] | 90 | 5.91 | 99 | 4.07 | 3.3 | 3.7 | 6.52 | Not Active |  | 
C[C@]12CC[C@@H]3c4ccc(O)cc4C[C@@H](CCCCCCCCC[S+]([O-])CCCC(F)(F)C(F)(F)F)[C@H]3[C@@H]1CC[C@@H]2O (stereo partly drawn) [FULVESTRANT] |  |  |  |  |  |  |  |  | Active | pEC50 (SARS-CoV-2 [19]): 6.72
CNC(=O)c1cc(Oc2ccc(NC(=O)Nc3ccc(Cl)c(C(F)(F)F)c3)cc2)ccn1 [SORAFENIB] |  |  |  | 6.39 |  |  |  |  | Active | pEC50 (SARS-CoV-2 [6]): 4.68; pEC50 (SARS-CoV-2 [19]): 6.57
CN1CCCC(n2nc(Cc3ccc(Cl)cc3)c3ccccc3c2=O)CC1 (stereo not drawn) [AZELASTINE] |  |  |  | 4.57 |  |  |  |  | Active | pEC50 (SARS-CoV-2 [6]): 4.35; pEC50 (SARS-CoV-2 [20]): 4.89; pEC50 (SARS-CoV-2 [19]): 4.73; Activity [21]: inactive
COc1c(O)cc2oc(-c3ccccc3)cc(=O)c2c1O [OROXYLIN A] | 42 | 4.70 | 33 |  |  |  | 4.14 | Not Active |  | Activity (SARS-CoV-2 [1]): Active
CC1(C)[C@@H](O[C@H]2O[C@H](C(=O)O)[C@@H](O)[C@H](O)[C@H]2O[C@@H]2O[C@H](C(=O)O)[C@@H](O)[C@H](O)[C@H]2O)CC[C@]2(C)[C@H]3C(=O)C=C4[C@@H]5C[C@@](C)(C(=O)O)CC[C@]5(C)CC[C@@]4(C)[C@]3(C)CC[C@@H]12 [GLYCYRRHIZIN] |  | 2.60 |  |  | 10 | 15 |  | Not Active | Active | pEC50 (SARS-CoV-2 [20]): 4.34; pIC50 [22]: 4.48; pEC50 (SARS-CoV-2 [19]): 5.59; Activity (Bacteria [23]): 60%; Activity (Bacteria [24]): 47%
CCOC(=O)c1c(CSc2ccccc2)n(C)c2cc(Br)c(O)c(CN(C)C)c12 [UMIFENOVIR] | 58 |  | 43 | 6.59 | 58 | 28 | 5.07 | Not Active | Active | pEC50 (SARS-CoV-2 [6]): 4.60; pEC50 (SARS-CoV-2 [19]): 6.36
Oc1ccc(-c2[o+]c3cc(O)cc(O)c3cc2O)cc1.[Cl-] [PELARGONIDIN CHLORIDE] | 83 | 4.30 | 130 |  | 79 | 56 | 5.09 | Not Active |  | 
O=c1cc(-c2ccc(O)c(-c3c(O)cc(O)c4c(=O)cc(-c5ccc(O)cc5)oc34)c2)oc2cc(O)cc(O)c12 [AMENTOFLAVONE] | 93 |  | 78 |  | 25 | 100 | 5.21 |  |  | 
CCCCCc1cc(O)c(C/C=C(\C)CCC=C(C)C)c(O)c1C(=O)O [CANNABIGEROLIC ACID] | 95.7 |  | 68 | 5.92 | 12 | 162 | 4.54 | Not Active | Active | Activity [16]: inactive; Activity (SARS-CoV-2 [1]): Active; Activity [12]: Toxic; Activity [17]: Active; Activity [18]: inactive; inhibition (Sus scrofa [13]): Active
O=c1cc(-c2ccc(O)c(O)c2)oc2cc(O)cc(O)c12 [LUTEOLIN] | 89 | 5.00 | 107 |  | 83 | 28 | 4.82 | Not Active |  | 

Source: ChEMBL document CHEMBL5512692, “Colloidal Aggregation Confounds Cell-Based Covid-19 Antiviral Screens” (J Med Chem, 2024)
